# In publication PMC12920294, “Optimizing uPAR-targeting radiopeptides for improved tissue distribution: progress towards radionuclide therapy” (European Journal of Nuclear Medicine and Molecular Imaging, 2025):
# Marks after values point to notes of the source that are not given here.
# Columns and labels:
# human uPAR = target: T1, human uPAR (Homo sapiens, UniProt Q03405); test: uPAR-binding affinity, saturation binding on HEK-uPAR cells; conditions: 4 °C
# T1 construct: host or cells: HEK cells transfected with human uPAR (HEK-uPAR)
# T1 sequence (Q03405 23-335): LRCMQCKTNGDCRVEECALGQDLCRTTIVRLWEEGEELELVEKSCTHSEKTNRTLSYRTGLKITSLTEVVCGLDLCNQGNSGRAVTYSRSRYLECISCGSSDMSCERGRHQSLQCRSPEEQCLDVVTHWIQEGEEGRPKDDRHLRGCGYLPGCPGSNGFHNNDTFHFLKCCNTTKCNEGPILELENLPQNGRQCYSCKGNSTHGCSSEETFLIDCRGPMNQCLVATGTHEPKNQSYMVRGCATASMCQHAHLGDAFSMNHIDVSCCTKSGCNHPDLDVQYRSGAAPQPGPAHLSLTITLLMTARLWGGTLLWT
# Description: To determine the uPAR-binding affinity of the radiopeptides, saturation binding experiments were performed according to a previously published procedure using HEK-uPAR cells in 48-well plates (Supplementary Material). The assay was performed on ice (at 4 °C) to prevent target internalization upon binding of the radiopeptides. The cells were incubated with the radiopeptides in the presence or absence of excess AE105 (40 µM) together with the respective radiopeptides at concentrations ranging between 1 nM and 1600 nM. After removal of the supernatant, the HEK-uPAR cells were rinsed and lysed to be measured using a γ-counter (Wallac Wizard 1480, PerkinElmer). The KD values were determined by plotting the specific binding (values of cell samples incubated without AE105 minus the respective values of samples incubated with AE105) against the molar concentration of the added peptide. A nonlinear regression analysis was performed using GraphPad Prism software (version 10.1.1). The results are reported as average of KD values ± SD of n = 3 independent experiments. Methods: HEK-uPAR cells were seeded in poly-D-lysine-coated 48-well plates (0.25 × 10^6 in 0.5 mL per well) using DMEM culture medium with supplements. The cells were incubated at 37 °C and 5% CO2 overnight to allow adhesion and growth. The well plates with HEK-uPAR cells were placed on ice for the entire experiment to prevent internalization of the radiopeptides. After removal of the medium, the HEK-uPAR cells were rinsed with cold PBS (0.5 mL, pH 7.4) followed by the addition of DMEM culture medium without supplements (450 µL/well) in the presence or absence of AE105 (final concentration 40 µM) as a receptor blocking agent. The cells were incubated for 30 min on ice. The respective radiopeptides (5 MBq/nmol) were diluted in PBS at peptide concentrations 10‒16000 nM. A volume of 50 µL from each dilution was added to each well to obtain peptide concentrations in the range of […]. The assay was performed at 4 °C on ice, to prevent internalization of the radiopeptides. The radiopeptides were incubated on cells for 1 h on a shaker before rinsing twice with PBS (0.5 mL, pH 7.4). Increasing ligand concentrations were used to approximate saturation of the binding sites (Bmax value) at equilibrium. Ligand depletion effects of the ligand concentration in the supernatant of the cell samples were not taken into account. The cells were lysed using an aqueous NaOH solution (1 M, 600 µL) and the lysates were transferred to radioimmunoassay tubes for counting the activity in a γ-counter (Wallac Wizard 1480, PerkinElmer). The KD values were determined by plotting the specific binding (total binding minus unspecific binding) against the molar concentration of the added radiopeptide using GraphPad Prism software (version 10.1.1). The results were then expressed as average ± SD of n = 3 independent experiments.
# mouse serum albumin = target: T2, mouse serum albumin (Mus musculus, UniProt P07724); assay type: in vitro ADME
# T2 construct: tissue Rockland Immunochemicals Inc., USA Lot: 32321; host or cells: mouse blood plasma
# T2 sequence (P07724 25-608): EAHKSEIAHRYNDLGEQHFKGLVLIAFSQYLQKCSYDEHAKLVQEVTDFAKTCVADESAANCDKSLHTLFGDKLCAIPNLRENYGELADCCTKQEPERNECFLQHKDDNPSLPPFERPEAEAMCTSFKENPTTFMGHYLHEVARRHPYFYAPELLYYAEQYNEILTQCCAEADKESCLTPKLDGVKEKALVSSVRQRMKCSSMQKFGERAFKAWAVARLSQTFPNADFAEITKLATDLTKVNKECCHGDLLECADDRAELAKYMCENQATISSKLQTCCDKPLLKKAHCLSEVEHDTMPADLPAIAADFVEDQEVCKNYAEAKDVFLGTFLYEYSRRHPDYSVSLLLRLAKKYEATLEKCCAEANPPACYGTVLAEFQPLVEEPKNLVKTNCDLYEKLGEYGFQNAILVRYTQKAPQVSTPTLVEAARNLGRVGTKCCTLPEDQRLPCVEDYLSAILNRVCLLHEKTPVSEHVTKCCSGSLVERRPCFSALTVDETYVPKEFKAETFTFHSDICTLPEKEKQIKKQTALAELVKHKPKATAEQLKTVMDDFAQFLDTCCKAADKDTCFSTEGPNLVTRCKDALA
# Description: (§1) The albumin-binding properties of the radiopeptides in mouse and human blood plasma were determined using an ultrafiltration assay with Amicon centrifugal filters (cut-off of 10 kDa; Merck Millipore) as previously reported (Supplementary Material). A fixed amount of the respective radiopeptide (~ 300 kBq, 15 µL, 6 pmol) was added to a defined volume (150 µL) of mouse and human blood plasma dilutions to obtain [mouse serum albumin]-to-[radiopeptide] molar concentration ratios of 0.01‒12,500 and [human serum albumin]-to-[radiopeptide] molar concentration ratios of 0.01‒20,000. The data were analyzed using a semi-logarithmic Hill plot with the maximum binding set as 100% using GraphPad Prism software (version 10.1.1). The half-maximum binding (B50 values) of each radiopeptide was expressed as relative values using the inverse ratios with the value of [^177Lu]Lu-uPAR-11 set as 1.0. […] The samples were incubated at 37 °C for 30 min. Ice-cold PBS (150 µL, pH 7.4) was added before loading the blood plasma samples on Amicon centrifugal filters (cut-off of 10 kDa; Merck Millipore) followed by centrifugation (14000 rcf, 4 °C, 30 min) to allow the separation of the plasma protein-bound from the unbound (free) fractions of each sample. The inserts of the filter devices were inverted and centrifuged at 200 rcf for 3 min to recover the protein-bound radiopeptide. The activity of the protein-bound fraction was measured using a γ-counter (Wallac Wizard 1480, PerkinElmer). The activity in the filtrate and filter unit was counted in the γ-counter and the counts were combined, assuming that the fraction retained in the filter membrane was not bound to proteins. The protein-bound fraction was expressed as percentage of the whole activity (i.e. plasma protein-bound activity, activity measured in the filtrate and activity measured in the filter (set as 100%)). The data were analyzed using a semi-logarithmic plot assuming a maximum binding of 100%. The Hill equation was fitted to the data points, and the half-maximum binding (B50) was determined based on the obtained binding curves using GraphPad Prism software (version 10.1.1). To quantitatively express and compare the albumin-binding properties of the radiopeptides, the relative albumin-binding affinity was expressed as the inverse half-maximal-binding (B50) of the respective radioligand to that of [^177Lu]Lu-uPAR-11, which was set as 1.0. The results were presented as the value obtained from the average curve from 3 independent experiments.
# in vivo = conditions: CD1 nude, mouse, 0.5 nmol/mouse, total radioactivity
# Description: (§2) HEK-uPAR xenografted mice were injected with the respective radiopeptide (5 MBq, 0.5 nmol/mouse, 100 µL 0.9% NaCl containing 0.05% BSA) and sacrificed at 4 h and 24 h after injection. […] The tissues and organs of interest were collected, weighed and counted for activity using a γ-counter (Wallac Wizard 1480, PerkinElmer). […] The results were presented as the average ± SD of n = 3 mice. The time-activity curves were determined for the uptake of [^177Lu]Lu-DOTA-AE105 and [^177Lu]Lu-uPAR-11 in the blood, HEK-uPAR xenografts, kidneys and liver based on non-decay corrected biodistribution data. For the blood, the initial uptake (t = 0) was set as 50% IA/g assuming a blood volume of 2 mL for CD1 nude mice. The initial uptake value (t = 0) for all other organs and tissues was set as 0% IA/g. […] The area under the curves over 48 h after injection (AUC0h→48 h) was calculated using GraphPad Prism software (version 10.1.1). Statistical analyses were performed by applying a one-way ANOVA test with a Dunnet’s multiple comparison post‐test to compare the data of the new radiopeptides with those of [^177Lu]Lu-DOTA-AE105 and a Tukey’s multiple comparisons post‐test to compare the novel radiopeptides among them. A p-value of < 0.05 was considered a statistically significant difference using GraphPad Prism software (version 10.1.1).
# [1] = system: HEK-uPAR xenograft-bearing mice; conditions: mouse, in vivo
# Description: as §2
# human serum albumin = human serum albumin (Homo sapiens, UniProt P02768); assay type: in vitro ADME; set-up: tissue Stiftung Blutspende SRK Aargau-Solothurn, Switzerland; host or cells: human blood plasma
# human serum albumin, sequence (P02768 25-609): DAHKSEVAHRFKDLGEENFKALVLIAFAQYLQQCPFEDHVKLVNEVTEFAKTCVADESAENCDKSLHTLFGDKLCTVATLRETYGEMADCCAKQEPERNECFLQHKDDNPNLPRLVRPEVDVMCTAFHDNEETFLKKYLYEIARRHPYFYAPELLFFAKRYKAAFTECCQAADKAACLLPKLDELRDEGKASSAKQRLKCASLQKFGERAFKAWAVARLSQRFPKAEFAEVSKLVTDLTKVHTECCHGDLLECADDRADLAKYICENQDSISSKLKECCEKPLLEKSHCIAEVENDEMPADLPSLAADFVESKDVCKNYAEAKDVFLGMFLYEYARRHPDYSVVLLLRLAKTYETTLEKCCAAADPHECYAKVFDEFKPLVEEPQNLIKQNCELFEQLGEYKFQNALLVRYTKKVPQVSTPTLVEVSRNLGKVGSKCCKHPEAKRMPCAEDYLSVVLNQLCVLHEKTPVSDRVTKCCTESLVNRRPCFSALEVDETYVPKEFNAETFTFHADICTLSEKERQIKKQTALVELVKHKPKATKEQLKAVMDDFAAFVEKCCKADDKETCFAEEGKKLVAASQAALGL
# Description: as §1
smiles,measurement,setting,value
"Cc1ccc(CCCC(=O)NCCOCCOCCOCCOCCC(=O)NCCCC[C@H](NC(=O)CN2CCN(CC(=O)O)CCN(CC(=O)O)CCN(CC(=O)O)CC2)C(=O)N[C@@H](CC(=O)O)C(=O)N[C@@H](CC2CCCCC2)C(=O)N[C@@H](Cc2ccccc2)C(=O)N[C@H](CO)C(=O)N[C@H](CCCNC(=N)N)C(=O)N[C@@H](Cc2ccc(O)cc2)C(=O)N[C@@H](CC(C)C)C(=O)N[C@@H](Cc2c[nH]c3ccccc23)C(=O)N[C@@H](CO)C(N)=O)cc1 [[^177Lu]Lu-uPAR-11, metal not drawn]",Kd,human uPAR,37 ± 11 nM
same,Weaker affinity to mouse albumin than [177Lu]Lu-uPAR-02,mouse serum albumin,3.2 fold
same,tissue uptake at 1 h,in vivo; Blood uptake,13 ± 2 %ID/g
same,tissue uptake at 4 h,in vivo; Blood uptake,5 ± 0.6 %ID/g
same,tissue uptake at 24 h,in vivo; Blood uptake,< 0.03 %ID/g
same,tissue uptake at 48 h,in vivo; Blood uptake,< 0.03 %ID/g
same,tissue uptake at 1 h,in vivo; Bone uptake,1.7 ± 0.4 %ID/g
same,tissue uptake at 4 h,in vivo; Bone uptake,0.73 ± 0.06 %ID/g
same,tissue uptake at 24 h,in vivo; Bone uptake,0.19 ± 0.03 %ID/g
same,tissue uptake at 48 h,in vivo; Bone uptake,0.11 ± 0.02 %ID/g
same,tissue uptake at 1 h,in vivo; Brain uptake,0.28 ± 0.03 %ID/g
same,tissue uptake at 4 h,in vivo; Brain uptake,0.12 ± 0.23 %ID/g
same,tissue uptake at 24 h,in vivo; Brain uptake,< 0.03 %ID/g
same,tissue uptake at 48 h,in vivo; Brain uptake,< 0.03 %ID/g
same,tissue uptake at 1 h,in vivo; HEK-uPAR xenograft uptake,13 ± 2 %ID/g
same,tissue uptake at 4 h,in vivo; HEK-uPAR xenograft uptake,16 ± 2 %ID/g
same,tissue uptake at 24 h,in vivo; HEK-uPAR xenograft uptake,7.9 ± 0.9 %ID/g
same,tissue uptake at 48 h,in vivo; HEK-uPAR xenograft uptake,5.3 ± 0.7 %ID/g
same,tissue uptake at 1 h,in vivo; Heart uptake,4.9 ± 0.3 %ID/g
same,tissue uptake at 4 h,in vivo; Heart uptake,1.8 ± 0.2 %ID/g
same,tissue uptake at 24 h,in vivo; Heart uptake,0.12 ± 0.02 %ID/g
same,tissue uptake at 48 h,in vivo; Heart uptake,0.08 ± 0.01 %ID/g
same,tissue uptake at 1 h,in vivo; Intestines uptake,1.8 ± 0.2 %ID/g
same,tissue uptake at 4 h,in vivo; Intestines uptake,0.93 ± 0.11 %ID/g
same,tissue uptake at 24 h,in vivo; Intestines uptake,0.19 ± 0.01 %ID/g
same,tissue uptake at 48 h,in vivo; Intestines uptake,0.14 ± 0.03 %ID/g
same,tissue uptake at 1 h,in vivo; Kidneys uptake,6.8 ± 0.9 %ID/g
same,tissue uptake at 4 h,in vivo; Kidneys uptake,4 ± 0.4 %ID/g
same,tissue uptake at 24 h,in vivo; Kidneys uptake,1.3 to 1.7 %ID/g
same,tissue uptake at 48 h,in vivo; Kidneys uptake,1.1 ± 0.1 %ID/g
same,tissue uptake at 1 h,in vivo; Liver uptake,4.5 ± 0.3 %ID/g
same,tissue uptake at 4 h,in vivo; Liver uptake,1.8 ± 0.2 %ID/g
same,tissue uptake at 24 h,in vivo; Liver uptake,0.33 ± 0.03 %ID/g
same,tissue uptake at 48 h,in vivo; Liver uptake,0.25 ± 0.02 %ID/g
same,tissue uptake at 1 h,in vivo; Lung uptake,7 ± 1.3 %ID/g
same,tissue uptake at 4 h,in vivo; Lung uptake,3.1 ± 0.2 %ID/g
same,tissue uptake at 24 h,in vivo; Lung uptake,0.29 ± 0.08 %ID/g
same,tissue uptake at 48 h,in vivo; Lung uptake,0.17 ± 0.02 %ID/g
same,tissue uptake at 1 h,in vivo; Muscle uptake,1.4 ± 0.3 %ID/g
same,tissue uptake at 4 h,in vivo; Muscle uptake,0.63 ± 0.09 %ID/g
same,tissue uptake at 24 h,in vivo; Muscle uptake,0.05 %ID/g
same,tissue uptake at 48 h,in vivo; Muscle uptake,0.04 ± 0.01 %ID/g
same,tissue uptake at 1 h,in vivo; Pancreas uptake,1.7 ± 0.2 %ID/g
same,tissue uptake at 4 h,in vivo; Pancreas uptake,0.69 ± 0.05 %ID/g
same,tissue uptake at 24 h,in vivo; Pancreas uptake,0.09 ± 0.02 %ID/g
same,tissue uptake at 48 h,in vivo; Pancreas uptake,0.07 ± 0.02 %ID/g
same,tissue uptake at 1 h,in vivo; Salivary glands uptake,2.9 ± 0.5 %ID/g
same,tissue uptake at 4 h,in vivo; Salivary glands uptake,1.3 ± 0.2 %ID/g
same,tissue uptake at 24 h,in vivo; Salivary glands uptake,0.17 ± 0.02 %ID/g
same,tissue uptake at 48 h,in vivo; Salivary glands uptake,0.18 ± 0.04 %ID/g
same,tissue uptake at 1 h,in vivo; Spleen uptake,2.2 ± 0.3 %ID/g
same,tissue uptake at 4 h,in vivo; Spleen uptake,1.1 ± 0.1 %ID/g
same,tissue uptake at 24 h,in vivo; Spleen uptake,0.49 ± 0.05 %ID/g
same,tissue uptake at 48 h,in vivo; Spleen uptake,0.37 ± 0.05 %ID/g
same,tissue uptake at 1 h,in vivo; Stomach uptake,1.8 ± 0.5 %ID/g
same,tissue uptake at 4 h,in vivo; Stomach uptake,0.75 ± 0.19 %ID/g
same,tissue uptake at 24 h,in vivo; Stomach uptake,0.12 ± 0.01 %ID/g
same,tissue uptake at 48 h,in vivo; Stomach uptake,0.09 %ID/g
same,"AUC0h→48h, HEK-uPAR xenograft",[1],410 ± 21 % IA/g*h
same,"AUC0h→48h, blood",[1],109 ± 6 % IA/g*h
same,"AUC0h→48h, kidneys",[1],103 ± 5 % IA/g*h
same,"AUC0h→48h, liver",[1],38 ± 2 % IA/g*h
same,Blood AUC0h→48h relative to [177Lu]Lu-DOTA-AE105,[1],3.9 fold
same,HEK-uPAR xenograft AUC0h→48h relative to [177Lu]Lu-DOTA-AE105,[1],16 fold
same,Kidneys AUC0h→48h relative to [177Lu]Lu-DOTA-AE105,[1],~ 1.7 fold
same,Liver AUC0h→48h relative to [177Lu]Lu-DOTA-AE105,[1],~ 5.5 fold
same,Xenograft-to-blood AUC0h→48h ratio relative to [177Lu]Lu-DOTA-AE105,[1],4.2 fold
same,Inverse relative albumin-binding affinity,human serum albumin,1.00^b
same,Weaker affinity to human albumin than [177Lu]Lu-uPAR-02,human serum albumin,4.6 fold
